For the test, the system named is MMP-2. In words: Substrate phage display with NGS: relative probability (RP) of P3-P1' tetramer clusters. The class given is biochemical, human. The settings on record: for avg_RP: MMP2 - no binning; for relative_probability: tetramer clusters unique to the MMP-2 selectome, MMP-2 RP.
The mark [1] stands for this setting: average relative probability (RP) of the P3-P1' tetramer, redundant tetramers have been averaged out.
Setting [2] is: average relative probability of the P3-P1' tetramer, redundant tetramers have been averaged out.
Setting [3] is: average relative probability of the tetramer, redundant tetramers averaged out.
[4] abbreviates: tetramer probability in MMP2 set / naive library, 200 nM protease, 2 h, 37°C.
[5] abbreviates: tetramer projected onto MMP-2 cleavage sites determined by Prudova et al. (2010).

Take INFL: the avg_RP under setting [1] came out at 7.787. Regarding INML, the avg_RP under setting [2] worked out at 5.8285. Substance INQL yielded an avg_RP under setting [1] of 1.5518. The substance IQSL yielded an avg_RP under setting [2] of 25.2682. Take IQTM: the avg_RP under setting [2] turned out to be 7.1082. With IRFL, under setting [3], the avg_RP worked out at 12.1004. Take IRHL: the avg_RP under setting [1] is recorded as 22.5548. Under setting [3], IRML had an avg_RP of 12.7446. With IRWL, under setting [1], the avg_RP is 25.5858. Regarding IRYL, the avg_RP under setting [3] was found to be 17.8741. Same read-out and setting: for ISAL the value was 31.8319. Take ISFM: the avg_RP under setting [2] is listed as 23.3965.

In the case of ISHL, the avg_RP under setting [2] is listed as 30.7015. Take ISNW: the avg_RP under setting [3] was 26.0602. On the same count and under the same terms, under ISWM stands 28.3587. As to ISYM, under setting [2], the avg_RP was found to be 22.3091. Under setting [1], IWAL gave an avg_RP of 5.7953. With IWKL, the avg_RP under setting [2] was found to be 0.0593. The substance IWSL had an avg_RP under setting [3] of 5.404. As to IYAL, the avg_RP under setting [2] amounted to 6.9669. The same measure, in the same setting: under IYEL stands 0.2382.

IYGL showed an avg_RP under setting [1] of 9.4242. Turning to IYNL, under setting [2], the avg_RP is recorded as 11.935. As for LAAI, the avg_RP under setting [3] came to 28.8382. In turn, LAAM [P3-P1' tetramer cluster] displayed a relative_probability of 30.68. This substance had an avg_RP under setting [2] of 30.6825. Under setting [3], LAAW had an avg_RP of 24.7038. LAHI returned an avg_RP under setting [2] of 25.9365.

Under setting [2], LAHV came in with an avg_RP of 11.7405. On the same count and under the same terms, under LAKL stands 21.2737.

Regarding LANI [P3-P1' tetramer cluster], the relative_probability is 29.81. As to LANL, under setting [2], the avg_RP is 34.4823. LANW [P3-P1' tetramer cluster] yielded a relative_probability of 29.93. In the case of LAQI, the avg_RP under setting [1] worked out at 17.7137. Still for that read-out and setting: for LARL the value was 21.3172.

Substance LASL [P3-P1' tetramer cluster] yielded a relative_probability of 31.20. This substance had an avg_RP under setting [2] of 31.1996.

For LASQ, under setting [2], the avg_RP stood at 21.0724.

With LDLL, the avg_RP under setting [2] is 0.0715. Same read-out and setting: for LDWM the value was 7.0331.

LFHL gave an avg_RP under setting [1] of 2.7376. As to LGAM [P3-P1' tetramer cluster], the relative_probability is 29.74. As for LGCL, the avg_RP under setting [2] is on record as 12.7261.

In the case of LGEL [P3-P1' tetramer cluster], the relative_probability is 29.44. On to LGHL [P3-P1' tetramer cluster], for which the relative_probability is 31.17. Besides, the avg_RP under setting [2] worked out at 31.1653. In the case of LGML, the avg_RP under setting [2] amounted to 29.0922. Same read-out and setting: for LGMM the value was 22.231.

LGNL came in with an avg_RP under setting [3] of 33.3542.

Consider LGNM [P3-P1' tetramer cluster], for which the relative_probability stood at 29.28.

As to LGTL, the avg_RP under setting [2] is 24.6198. In the case of LGYL, under setting [3], the avg_RP stood at 24.8925.

In turn, LHSL had an avg_RP under setting [2] of 18.7402. The same measure, in the same setting: for LKHL the value was 11.1441.

The substance LLAM displayed an avg_RP under setting [3] of 10.8556. The substance LLDL displayed an avg_RP under setting [2] of 0.3542.

As for LLHL, the avg_RP under setting [1] is reported as 16.5808. In the case of LLNM, the avg_RP under setting [2] is on record as 13.7728.

As for LLSL, the avg_RP under setting [3] is on record as 2.0177. Under setting [1], LMAL returned an avg_RP of 15.4189.

LMGL yielded an avg_RP under setting [3] of 28.5499.

Under setting [2], LMRL registered an avg_RP of 0.1149.

LNSL returned an avg_RP under setting [2] of 18.3633. Take LNST: under setting [3], the avg_RP is listed as 0.4784. LNYL came in with an avg_RP under setting [2] of 12.3459.

LQKL came in with an avg_RP under setting [2] of 13.1993. With LQNL, under setting [2], the avg_RP was determined as 27.5155.

Regarding LRAM, the avg_RP under setting [3] worked out at 29.407. Take LRHL: the avg_RP under setting [2] is 22.7972. Turning to LRML, the avg_RP under setting [3] was 9.0498. Turning to LRNI, the avg_RP under setting [2] stood at 19.0698. Under setting [3], LRNL yielded an avg_RP of 27.1336. Take LRQM: under setting [2], the avg_RP turned out to be 8.6765.

The substance LRWW registered an avg_RP under setting [2] of 6.3129. As for LSHL, under setting [2], the avg_RP turned out to be 29.8814. Still for that read-out and setting: under LSNL stands 32.5007. LSRL displayed an avg_RP under setting [2] of 14.3329. In turn, LSSL displayed an avg_RP under setting [3] of 24.2822. For the substance LTHL, the avg_RP under setting [2] was determined as 4.2994.

With LWKL, the avg_RP under setting [2] is 0. LWRI returned an avg_RP under setting [1] of 0. In turn, LWSL registered an avg_RP under setting [2] of 8.3838. Take LWTL: under setting [2], the avg_RP is given as 0.0853.

As for LWYL, under setting [2], the avg_RP amounted to 0.6796. In turn, LYGL gave an avg_RP under setting [2] of 17.2472.

As for LYHL, the avg_RP under setting [2] was found to be 4.5289.

The substance MAAL showed an avg_RP under setting [3] of 32.6562.

Take MAHL [P3-P1' tetramer cluster]: the relative_probability is on record as 29.50. The substance also displayed an avg_RP under setting [3] of 29.5006. Take MALL: the avg_RP under setting [1] was found to be 16.9256. Consider MANL [P3-P1' tetramer cluster], for which the relative_probability came to 32.42. MASL [P3-P1' tetramer cluster] registered a relative_probability of 31.68. Under setting [2], the avg_RP was 31.6834.

In the case of MAWL, under setting [3], the avg_RP amounted to 31.5866. Substance MDLL yielded an avg_RP under setting [2] of 0.2864. On to MESL, for which the avg_RP under setting [3] amounted to 8.7752.

On to MFHL, for which, under setting [2], the avg_RP turned out to be 0.052.

Under setting [1], MFSL gave an avg_RP of 0.2905.

On to MGAL [P3-P1' tetramer cluster], for which the relative_probability is recorded as 31.51. Take MGHL: the avg_RP under setting [3] came out at 26.7019.

As for MGNL [P3-P1' tetramer cluster], the relative_probability is 31.00. Turning to MGRL, under setting [3], the avg_RP stood at 18.6873. As to MGWI [P3-P1' tetramer cluster], the relative_probability was found to be 29.72. For MHEL, the avg_RP under setting [1] is reported as 0.0484. The substance MLAL showed an avg_RP under setting [2] of 5.6722. As to MLGL, under setting [1], the avg_RP was determined as 16.6463. The substance MLHL gave an avg_RP under setting [3] of 8.4169. With MLHM, under setting [2], the avg_RP turned out to be 4.7134. Still for that read-out and setting: under MLSL stands 2.2282; under MLSM, 5.2342. Same read-out and setting: for MMQL the value was 0.816; for MMSL, 6.1978. Regarding MNSL, the avg_RP under setting [3] is given as 18.7113. MNWL [P3-P1' tetramer cluster] showed a relative_probability of 30.10. Substance MQNL yielded an avg_RP under setting [1] of 23.8708. On the same count and under the same terms, for MQRL the value was 9.3428. Consider MRHL, for which the avg_RP under setting [2] is reported as 14.413. MSHL: under setting [3], the avg_RP is 24.6165. MSNL [P3-P1' tetramer cluster]: the relative_probability is listed as 30.28. MSSL registered an avg_RP under setting [2] of 27.4466. In turn, MSWM [P3-P1' tetramer cluster] registered a relative_probability of 29.68. Consider MSYL, for which the avg_RP under setting [3] is reported as 18.2293.

MWHL had an avg_RP under setting [2] of 0.2013. Substance NARL had an avg_RP under setting [1] of 12.6743.

In turn, NLAL displayed an avg_RP under setting [1] of 5.8865. Same read-out and setting: under NLPL stands 4.8994.

Regarding PAAL [P3-P1' tetramer cluster], the avg_RP under setting [3] is 35.8015. Moreover, the “relative probability (RP)” value by setting is: under setting [4], 35.8015; under setting [5], 35.8. PAGL [P3-P1' tetramer cluster] displayed an avg_RP under setting [2] of 36.0156. The “relative probability (RP)” value under setting [4] was found to be 36.0156. For PAHL, under setting [1], the avg_RP was 34.5554. Substance PAPM displayed an avg_RP under setting [3] of 30.2085.

In turn, PAPW displayed an avg_RP under setting [3] of 31.7353. Same read-out and setting: for PAQM the value was 28.6142. PASL [P3-P1' tetramer cluster]: the avg_RP under setting [2] worked out at 36.4285. In addition, the “relative probability (RP)” value runs as follows: under setting [4], 36.4285; under setting [5], 36.43.

With PASM, the avg_RP under setting [1] is recorded as 32.7286.

The substance PAWL registered an avg_RP under setting [1] of 34.876.

Regarding PAWM, the avg_RP under setting [2] is on record as 34.3571.

Consider PAYL, for which the avg_RP under setting [1] came to 33.0829. Take PDFL: under setting [2], the avg_RP is on record as 1.02.

Under setting [1], PDQL had an avg_RP of 0.2814.

Substance PEFL showed an avg_RP under setting [3] of 12.0159. In the case of PEML, the avg_RP under setting [2] is 16.0599. PEPL yielded an avg_RP under setting [3] of 26.8179. Turning to PERL, under setting [1], the avg_RP stood at 16.3826. On to PESL, for which, under setting [3], the avg_RP worked out at 26.0767. The substance PEWM returned an avg_RP under setting [2] of 12.3271. For the substance PEWY, the avg_RP under setting [3] is 14.0361.

As for PFFL, under setting [2], the avg_RP is 12.8224.

As for PFFM, the avg_RP under setting [2] was 3.5092.

As for PFHL, the avg_RP under setting [2] was found to be 23.4724. On to PFKY, for which the avg_RP under setting [3] worked out at 2.0624. On the same count and under the same terms, under PFLL stands 9.0855. The substance PFMI showed an avg_RP under setting [1] of 4.6361.

Under setting [3], PFML gave an avg_RP of 19.624. PFRL yielded an avg_RP under setting [2] of 16.3818. PFSN had an avg_RP under setting [3] of 0.4602. As for PFYL, under setting [2], the avg_RP is listed as 17.7778.

Under setting [2], PFYM showed an avg_RP of 8.1842. On to PGKM, for which, under setting [3], the avg_RP was 18.9001. Still for that read-out and setting: under PGLL stands 24.9611; under PGRL, 29.6024. With PGSM, under setting [1], the avg_RP is 25.6264. PGWL: under setting [2], the avg_RP was determined as 33.1284. The substance PHCL yielded an avg_RP under setting [1] of 0.499.

Under setting [3], PHGF displayed an avg_RP of 21.975. On the same count and under the same terms, under PHHL stands 27.4742. As to PHLL, the avg_RP under setting [2] is 16.4802. Under setting [2], PHMM displayed an avg_RP of 14.968. On the same count and under the same terms, for PHSM the value was 24.6739; for PHWL, 28.844. The substance PHYL gave an avg_RP under setting [3] of 24.5149. On the same count and under the same terms, under PIEL stands 20.545; under PIGI, 31.281.

As for PIHM, the avg_RP under setting [3] stood at 18.8886. On to PIML, for which the avg_RP under setting [2] worked out at 15.4441.

In turn, PIPL displayed an avg_RP under setting [2] of 33.1236. PKGM came in with an avg_RP under setting [3] of 31.666. On the same count and under the same terms, under PKLI stands 0.9254.

These data come from paper PMC7932537, “Quantitative profiling of protease specificity” (PLoS Computational Biology, 2021).
